Measurements taken from patent publication US20060280725A1, “Compositions and methods of treating and diagnosing hepatoma” (priority 2003, published 2006).

How the values were obtained:
[1] = system: Hep3B, PLC/PRF/5, Focus and THLE-5B cell lines; test: Amino acid inhibition analysis of Na+-dependent glutamine transport; type: cell-based, human; conditions: for inhibition at 5000 µM: Homo sapiens, unlabeled amino acid at 5 mM, 50 μM L-glutamine, Hep3B, PLC/PRF/5, Focus, THLE-5B, read-out: inhibition of glutamine uptake
Method: (§1) FIG. 1. Amino acid inhibition analysis of glutamine transport in the Hep3B, PLC/PRF/5 and Focus human hepatoma cell lines and the THLE-5B SV40-immortalized human liver epithelial cell line. The Na^+-dependent transport of 50 μM L-glutamine was measured as described in the Methods section in the absence or presence of the indicated unlabeled amino acids at 5 mM. Testing of cysteine (CYSH) required the presence of 5 mM dithiothreitol (DTT) as a reducing agent, so DTT was tested alone as well. Arrows indicate the relative transport rates for 50 μM L-glutamine in primary human adult (solid arrow) and fetal (open arrow) hepatocytes. The results represent the average±SD of four separate determinations (*p<0.010 versus control). The Eadie-Hofstee plots of the kinetic analyses are shown as an inset in each figure, with the dashed lines representing the resolved high and low affinity components of the composite data (solid line). The derived values of the kinetic constants for each component are given in the Results section.
(§2) Glutamine Transport Assays. Measurement of initial-rate glutamine uptake was carried out via the cluster-tray method originally described by Gazzola (21) as reported previously (6, 9). Briefly, after trypsinization hepatoma cells were plated at a density of 1×10^5 cells/well in 24-well culture plates (Costar Corp., Cambridge, Mass.) and allowed to grow to >80% confluence, typically one to two days later. For initial-rate measurements, the radiotracer utilized was L-[G-^3H] glutamine (Amersham Corp., Arlington Heights, Ill.) at 4 μCi/ml, in the presence of unlabeled L-glutamine at 50 μM. For kinetic studies, the amount of unlabeled glutamine in the transport buffer varied from 10 μM to 10 mM. All transport measurements were carried out at 37° C. and were terminated after 30 s by three rapid washes with an ice-cold phosphate-buffered saline solution. Intracellular radiolabeled glutamine was extracted with 0.2 ml/well of 0.2% sodium dodecyl sulfate (SDS) and 0.2 N NaOH; after 1 h, 0.1 ml of the lysate was neutralized with 10 μl of 2 N HCl and subjected to scintillation spectrophotometry in a Packard TopCount™ (Packard Instruments, Meriden, Conn.). The remaining lysate was utilized for the determination of cellular protein by the bicinchoninic acid (BCA) method (Pierce Chemical Co., Rockford, Ill.). Rates of glutamine transport were calculated from the cpm per sample, the specific activity of the uptake mix (in cpm/nmol) and normalized to cellular protein content in a Microsoft Excel® spreadsheet program. Transport values obtained in the absence of extracellular Na^+ (diffusion and Na^+-independent uptake) were subtracted from those in the presence of Na^+ (total uptake) to yield Na^+-dependent rates which are reported in units of nmol•mg^−1 protein•30 s^−1. […]

[2] = system: human fetal liver fibroblasts (HFLF); test: Glutamine transport assay (inhibition and kinetic analysis); type: cell-based; conditions: 5 mM, 50 μM L-glutamine
Method: FIG. 5. Functional and molecular assessment of ATB^0 expression in human fetal liver fibroblasts (HFLF) and cirrhotic liver tissue. A) Amino acid inhibition analysis of Na^+-dependent glutamine uptake in human fetal liver fibroblasts. Fibroblasts were isolated and cultured as described in the Methods section, and amino acid inhibition analysis of 50 μM L-glutamine uptake was carried out as described in FIG. 1. *p<0.010 vs. control. The Eadie-Hofstee plot of the kinetic analysis is shown as an inset, with the dashed lines representing the resolved high and low affinity components of the composite data (solid line). The derived values of the kinetic constants for each component are given in the Results section. B) Northern blot analysis of ATB^0 expression in HFLF. Radiolabeled cDNA probes were generated with the Megaprime™ kit as described in the Methods section, and hybridized to 20 μg of total RNA from HFLF. Exposure time was 24 h. C) RT-PCR and restriction enzyme analysis of ATB^0 expression in HFLF, normal and cirrhotic liver. The analysis was carried out exactly as described in FIG. 3. Omission of RT is shown for the normal liver sample. D) Expression of ATB^0 in biopsies from a patient with liver cirrhosis and hepatocellular carcinoma (HCC). Northern blot analysis of ATB^0 & SN1 expression were performed on RNA extracted from the snap-frozen biopsies. RNA isolation and northern blot analysis was carried out as described in the Methods section, with full-length riboprobes used for detection of transporter mRNA. Exposure times for the blots are shown to illustrate relative expression levels for ATB^0 in each of the samples.
as §2, with “s^−1. All transport values depicted are the average±standard deviation of four separate determinations. Kinetic analysis of Eadie-Hofstee linearized transport data (v vs. v/[L-GLN]) was performed by regression analysis (Cricket Graph®, Computer Associates, Islandia, N.Y.). Nonlinear regression analysis was performed with DataDesk (Data Description, Inc. Ithaca, N.Y.) and Excel for two component Michaelis-Menten kinetics: v=((Vmax1×[S])/(Km1+[S])+(Vmax2×[S])/(Km2+[S])).” for “s^−1.”

SK-Hep cells [3] = test: Poly IC treatment of SK-Hep cells (growth, viability, apoptosis); type: cell-based, human
Method: Possible role of a PKR response in hepatoma apoptosis. Given the marked effect of induced ATB^0/ASCT2 antisense RNA expression on hepatoma viability and apoptosis, the possibility that the transporter knockdown response was a nonspecific double stranded RNA-dependent protein kinase (PKR) (62) mediated event was considered. To this end, cells were treated with Polyriboinosinic-polyribocytidylic acid (poly IC)—a mimic of double stranded RNA and stimulator of PKR in mammalian cells.
The mechanism leading from ATB^0/ASCT2 inhibition to apoptosis is unclear, but is currently being investigated. As we ruled out a nonspecific double stranded RNA (PKR) response (FIG. 14), we hypothesize that another cellular stress pathway links transporter suppression to apoptosis. Specifically, oxidative stress may be involved due to the likely loss of the antioxidant glutathione after diminution of its precursor glutamine (65, 66). PKR phosphorylates the α chain of the eukaryotic translation initiation factor eIF2 inhibiting the guanine nucleotide exchange factor eIF2B and turning off protein synthesis. In this respect, the selective expression of ATB^0/ASCT2 in cancerous versus normal human liver cells remains important since tumor-specific activation of PKR has recently been used to inhibit glioma growth in vivo [68]. […]

THLE-5B = test: Glutamine transport assay (inhibition and kinetic analysis); type: cell-based, human; conditions: 5 mM, 50 μM L-glutamine, p<0.050
Method: as §1
Glutamine Transport Assays. Measurement of initial-rate glutamine uptake was carried out via the cluster-tray method originally described by Gazzola (21) as reported previously (6, 9). Briefly, after trypsinization hepatoma cells were plated at a density of 1×10^5 cells/well in 24-well culture plates (Costar Corp., Cambridge, Mass.) and allowed to grow to >80% confluence, typically one to two days later. For initial-rate measurements, the radiotracer utilized was L-[G-^3H] glutamine (Amersham Corp., Arlington Heights, Ill.) at 4 μCi/ml, in the presence of unlabeled L-glutamine at 50 μM. For kinetic studies, the amount of unlabeled glutamine in the transport buffer varied from 10 μM to 10 mM. All transport measurements were carried out at 37° C. and were terminated after 30 s by three rapid washes with an ice-cold phosphate-buffered saline solution. Intracellular radiolabeled glutamine was extracted with 0.2 ml/well of 0.2% sodium dodecyl sulfate (SDS) and 0.2 N NaOH; after 1 h, 0.1 ml of the lysate was neutralized with 10 μl of 2 N HCl and subjected to scintillation spectrophotometry in a Packard TopCount™ (Packard Instruments, Meriden, Conn.). The remaining lysate was utilized for the determination of cellular protein by the bicinchoninic acid (BCA) method (Pierce Chemical Co., Rockford, Ill.). Rates of glutamine transport were calculated from the cpm per sample, the specific activity of the uptake mix (in cpm/nmol) and normalized to cellular protein content in a Microsoft Excel® spreadsheet program. Transport values obtained in the absence of extracellular Na^+ (diffusion and Na^+-independent uptake) were subtracted from those in the presence of Na^+ (total uptake) to yield Na^+-dependent rates which are reported in units of nmol•mg^−1 protein•30 s^−1. All transport values depicted are the average±standard deviation of four separate determinations. Kinetic analysis of Eadie-Hofstee linearized transport data (v vs. v/[L-GLN]) was performed by regression analysis (Cricket Graph®, Computer Associates, Islandia, N.Y.). Nonlinear regression analysis was performed with DataDesk (Data Description, Inc. Ithaca, N.Y.) and Excel for two component Michaelis-Menten kinetics: v=((Vmax1×[S])/(Km1+[S])+(Vmax2×[S])/(Km2+[S])).
It should be noted that extensive depletion of intracellular amino acid pools were not performed prior to transport measurements in these studies because we sought to assess glutamine uptake under more physiological conditions. […]

SK-Hep cells [4] = test: Na+-dependent glutamine transport assay in SK-Hep cells and transfected clones; type: cell-based, human; conditions: SK-Hep parent cells
Method: FIG. 10. Effect of induced ATB0/ASCT2 antisense RNA expression on Na^+-dependent glutamine uptake. Cultures of the SK-Hep parent cell line and SK-Hep cells stably transfected with a 1.3 kb ATB^0 construct in the sense orientation (Sense 2-1) or antisense orientation (Antisense 1-1) were treated with inducer (MFP, 10 nM) or vehicle (ethanol, 0.1%) at time zero. At the indicated times thereafter, the initial rate (30 s) Na^+-dependent transport velocity of 50 μM L-glutamine was measured by radiotracer analysis as described in the methods section. The results represent the average±SD of four separate determinations. *p<0.050 versus control. **p<0.010 versus control.
Glutamine Transport Assays. Measurement of initial-rate Na^+-dependent glutamine uptake was performed by radiotracer analysis using the cluster tray method described in detail previously (57). Initial rate transport velocities are expressed as the average±SD of at least four separate determinations. The transport data was analyzed for significant differences using a t-test with a p<0.050 considered significant.
Inpact of antisense ATB^0/ASCT2 RNA on glutamine transport rates. In order to determine the functional effect of targeting ATB^0/ASCT2 mRNA, glutamine transport rates were measured.

SK-Hep cells [5] = test: Cellular quantification (hemacytometer cell number, viability); type: cell-based, human; conditions: treatment with MFP
Method: FIG. 11. Effect of induced antisense RNA expression and glutamine deprivation on cellular proliferation and viability. Cultures of SK-Hep cells stably transfected with a 1.3 kb ATB^0 construct in the antisense orientation (Antisense 1-1) were treated at time zero with either inducer (FP, 10 nM), vehicle (ethanol, 0.1%) or maintained in the presence (+GLN) or absence (−GLN) of glutamine (DMEM+10% dialyzed FBS±2 mM L-GLN). At the indicated times thereafter, cell number was calculated after trypsmization and subsequent counting on a hemacytometer. The results represent the average±SD of five separate determinations. **p<0.010 versus-MFP. ††p<0.010 versus+GLN. […]
Cellular Quantification. Initial screens of the stably transfected sense and antisense ATB^0/ASCT2 clones to MFP induction utilized the colorimetric MTT (3-[4,5-Dimethylthiazol-2-yl]-2,5-diphenyltetrazolium bromide (Sigma)) assay as previously described (57), using a spectrophotometric plate reader at a wavelength of 562 nm (Bio-Tek EL311SX, Winooski, Vt.). The absorbance is considered to be directly proportional to the number of metabolically active mitochondria, and by extension, the number of cells. In subsequent studies, cell number was quantified directly. At specific times after experimental treatment (±MFP or ±glutamine), cells were removed from the culture dish via trypsinization and quantified on a hemacytometer. […]

Compound | inhibition at 5000 µM [1] [%] | inhibition of Na+-dependent glutamine uptake [2] | also measured
C[C@H](N)C(=O)O [alanine, reference compound] | > 80 | marked inhibition | –
Polyriboinosinic-polyribocytidylic acid [poly IC] | – | – | apoptotic response in SK-Hep cells (SK-Hep cells [3]): failed to elicit the apoptotic response; growth or viability of SK-Hep cells (SK-Hep cells [3]): failed to impact growth or viability
N[C@@H](CO)C(=O)O [serine, reference compound] | > 80 | marked inhibition | –
CNC(C)(C)C(=O)O [MeAIB, alpha-(methylamino)isobutyric acid, reference compound] | – | not | diminished glutamine uptake (THLE-5B): 29%; inhibition of glutamine uptake ([1]; 5 mM, all cell lines except THLE-5B): failed to significantly inhibit glutamine uptake
CC#C[C@]1(O)CC[C@H]2[C@@H]3CCC4=CC(=O)CCC4=C3[C@@H](c3ccc(N(C)C)cc3)C[C@@]21C [MFP, mifepristone] | – | – | decrease in glutamine transport rates (SK-Hep cells [4]; 14 h MFP 10 nM, p<0.050, not reproduced in subsequent studies): 23%; decrease in glutamine transport rates (SK-Hep cells [4]; 24 h MFP): not observed; growth of the SK-Hep parent cell line (SK-Hep cells [5]): unaffected
N[C@@H](CS)C(=O)O [cysteine, reference compound] | > 80 | marked inhibition | –
